# Test results taken from US20260217677A1, “ORGANIC COMPOUNDS AS NLRP3 INHIBITORS” (KODIAK SCIENCES, INC., priority 2023, published 2026).
# pIC50: −log10 of the molar value.
# System: IL-1β release in U937 cells after NLRP3 activation
# Assay: IL-1β release inhibition in U937 cells (MSD V-Plex)
# Conditions: Homo sapiens, U-937, read-out: IL-1β IC50, Table 3; PMA-differentiated U937 cells, 1 μg/mL LPS 3 h, compound 30 min, 10 mM nigericin 1 h
row,SMILES,pIC50
1,"Oc1cc(C(F)(F)F)ccc1-c1nnc(N[C@@H]2CCCN(CCN3CC[C@@H](O)C3)C2)c2c1COC2 [Example 36, (R)-1-(2-((R)-3-((4-(2-Hydroxy-4-(trifluoromethyl)phenyl)-5,7-dihydrofuro[3,4-d]pyridazin-1-yl)amino)piperidin-1-yl)ethyl)pyrrolidin-3-ol]",7.30 to 8.30
2,"Cc1cc(N[C@@H]2CCCN(CCN3CC(O)C3)C2)nnc1-c1ccc(C(F)(F)F)cc1O [Example 37, (R)-1-(2-(3-((6-(2-Hydroxy-4-(trifluoromethyl)phenyl)-5-methylpyridazin-3-yl)amino)piperidin-1-yl)ethyl)azetidin-3-ol]",7.30 to 8.30
3,"Cc1cc(N[C@@H]2CCCN(C3CCN(C(=O)N4CC(O)C4)CC3)C2)nnc1-c1ccc(C(F)(F)F)cc1O [Example 40, (R)-(3-((6-(2-Hydroxy-4-(trifluoromethyl)phenyl)-5-methylpyridazin-3-yl)amino)-[1,4′-bipiperidin]-1′-yl) (3-hydroxyazetidin-1-yl)methanone]",> 8.30
4,"Cc1cc(N[C@@H]2CCCN(C3CCN(C(=O)N4CCC(O)CC4)CC3)C2)nnc1-c1ccc(C(F)(F)F)cc1O [Example 41, (R)-(3-((6-(2-Hydroxy-4-(trifluoromethyl)phenyl)-5-methylpyridazin-3-yl)amino)-[1,4′-bipiperidin]-1′-yl) (4-hydroxypiperidin-1-yl)methanone]",7.30 to 8.30
5,"Cc1c(-c2ccc(C(F)(F)F)cc2O)nnc2c1CCCN2[C@@H]1CCCN(CC(=O)N2CCC3(CC2)CC(O)C3)C1 [Example 43, 2-[(3R)-3-{3-[2-Hydroxy-4-(trifluoromethyl)phenyl]-4-methyl-5H,6H,7H-pyrido[2,3-c]pyridazin-8-yl}piperidin-1-yl]-1-{2-hydroxy-7-azaspiro[3.5]nonan-7-yl}ethanone]",6.30 to 7.30
6,"Cc1c(-c2ccc(C(F)(F)F)cc2O)nnc2c1CCCN2[C@@H]1CCCN(C2CCN(C3CC(O)C3)CC2)C1 (stereo partly drawn) [Example 44, 2-{8-[(3R)-1′-(3-Hydroxycyclobutyl)-[1,4′-bipiperidin]-3-yl]-4-methyl-5H,6H,7H-pyrido[2,3-c]pyridazin-3-yl}-5-(trifluoromethyl)phenol]",6.30 to 7.30
7,"Cc1c(-c2ccc(C(F)(F)F)cc2O)nnc2c1CCCN2[C@@H]1CCCN(C2CCN([C@H]3C[C@@H](O)C3)CC2)C1 [Example 45, 2-{4-Methyl-8-[(3R)-1′-[(1s,3s)-3-hydroxycyclobutyl]-[1,4′-bipiperidin]-3-yl]-5H,6H,7H-pyrido[2,3-c]pyridazin-3-yl}-5-(trifluoromethyl)phenol]",6.30 to 7.30
8,"Cc1cc(N[C@@H]2CCCN(CCC(=O)N3CCC(O)CC3)C2)nnc1-c1ccc(C(F)(F)F)cc1O [Example 46, 3-[(3R)-3-({6-[2-Hydroxy-4-(trifluoromethyl)phenyl]-5-methylpyridazin-3-yl}amino)piperidin-1-yl]-1-(4-hydroxypiperidin-1-yl) propan-1-one]",> 8.30
9,"Cc1cc(N[C@@H]2CCCN(CC(C)(C)C(=O)N3CCC(O)CC3)C2)nnc1-c1ccc(C(F)(F)F)cc1O [Example 47, 3-[(3R)-3-({6-[2-Hydroxy-4-(trifluoromethyl)phenyl]-5-methylpyridazin-3-yl}amino)piperidin-1-yl]-1-(4-hydroxypiperidin-1-yl)-2,2-dimethylpropan-1-one]",6.30 to 7.30
10,"Cc1cc(N[C@@H]2CCCN(CC(=O)N3CC(C)(CO)C3)C2)nnc1-c1ccc(C(F)(F)F)cc1O [Example 48, (R)-2-(3-((6-(2-Hydroxy-4-(trifluoromethyl)phenyl)-5-methylpyridazin-3-yl)amino)piperidin-1-yl)-1-(3-(hydroxymethyl)-3-methylazetidin-1-yl)ethan-1-one]",7.30 to 8.30
11,"Cc1cc(N[C@@H]2CCCN(CC(=O)N3CCC(O)CC3)C2)nnc1-c1ccc2sccc2c1O [Example 49, 2-[(3R)-3-{[6-(4-hydroxy-1-benzothiophen-5-yl)-5-methylpyridazin-3-yl]amino}piperidin-1-yl]-1-(4-hydroxypiperidin-1-yl)ethanone]",> 8.30
12,"Cc1c(N[C@@H]2CCCN(CC(=O)N3CCC(O)CC3)C2)nnc(-c2ccc3sccc3c2O)c1C [Example 50, (R)-2-(3-((6-(4-Hydroxybenzo[b]thiophen-5-yl)-4,5-dimethylpyridazin-3-yl)amino)piperidin-1-yl)-1-(4-hydroxypiperidin-1-yl)ethan-1-one]",> 8.30
13,"Cc1cc(N[C@@H]2CCCN(C[C@H]3C[C@@H](O)C3)C2)nnc1-c1ccc2sccc2c1O [Example 51, 5-(6-(((R)-1-(((1s,3S)-3-Hydroxycyclobutyl)methyl)piperidin-3-yl)amino)-4-methylpyridazin-3-yl)benzo[b]thiophen-4-ol]",> 8.30
14,"Cc1cc(N[C@@H]2CCCN(CC3CC(O)C3)C2)nnc1-c1ccc2sccc2c1O (stereo partly drawn) [Example 52, 5-(6-(((R)-1-(((1r,3R)-3-Hydroxycyclobutyl)methyl)piperidin-3-yl)amino)-4-methylpyridazin-3-yl)benzo[b]thiophen-4-ol]",> 8.30
15,"Cc1cc(N[C@@H]2CCCN(CC(=O)N3CCC(C)(O)CC3)C2)nnc1-c1ccc(C(F)(F)F)cc1O [Example 55, (R)-2-(3-((6-(2-Hydroxy-4-(trifluoromethyl)phenyl)-5-methylpyridazin-3-yl)amino)piperidin-1-yl)-1-(4-hydroxy-4-methylpiperidin-1-yl)ethan-1-one]",> 8.30
16,"O=C(CN1CCC[C@@H](Nc2nnc(-c3ccc4sccc4c3O)c3c2COC3)C1)N1CCC(O)CC1 [Example 56, (R)-2-(3-((4-(4-Hydroxybenzo[b]thiophen-5-yl)-5,7-dihydrofuro[3,4-d]pyridazin-1-yl)amino)piperidin-1-yl)-1-(4-hydroxypiperidin-1-yl)ethan-1-one]",7.30 to 8.30
17,"O=C(CN1CCC[C@@H](Nc2nnc(-c3ccc(C(F)(F)F)cc3O)c3c2CNC3)C1)N1CCC(O)CC1 [Example 57, (R)-2-(3-((4-(2-Hydroxy-4-(trifluoromethyl)phenyl)-6,7-dihydro-5H-pyrrolo[3,4-d]pyridazin-1-yl)amino)piperidin-1-yl)-1-(4-hydroxypiperidin-1-yl)ethan-1-one]",6.30 to 7.30
18,"Cc1cc(N[C@@H]2CCCN(CC(=O)N3CCC(CO)CC3)C2)nnc1-c1ccc(C(F)(F)F)cc1O [Example 58, (R)-2-(3-((6-(2-Hydroxy-4-(trifluoromethyl)phenyl)-5-methylpyridazin-3-yl)amino)piperidin-1-yl)-1-(4-(hydroxymethyl)piperidin-1-yl)ethan-1-one]",7.30 to 8.30
19,"Oc1cc(C(F)(F)F)ccc1-c1nnc(N[C@@H]2CCCN(C[C@H]3C[C@H](O)C3)C2)c2c1COC2 [Example 59, 2-(4-(((R)-1-(((1r,3R)-3-Hydroxycyclobutyl)methyl)piperidin-3-yl)amino)-5,7-dihydrofuro[3,4-d]pyridazin-1-yl)-5-(trifluoromethyl)phenol]",> 8.30
20,"CN1Cc2c(N[C@@H]3CCCN(CC(=O)N4CCC(O)CC4)C3)nnc(-c3ccc(C(F)(F)F)cc3O)c2C1 [Example 60, (R)-2-(3-((4-(2-Hydroxy-4-(trifluoromethyl)phenyl)-6-methyl-6,7-dihydro-5H-pyrrolo[3,4-d]pyridazin-1-yl)amino)piperidin-1-yl)-1-(4-hydroxypiperidin-1-yl)ethan-1-one]",6.30 to 7.30
21,"Cc1cc(N[C@@H]2CCCN(C(=O)C3CC4(CC(O)C4)C3)C2)nnc1-c1ccc(C(F)(F)F)cc1O (stereo partly drawn) [Example 61, (R)-(3-((6-(2-Hydroxy-4-(trifluoromethyl)phenyl)-5-methylpyridazin-3-yl)amino)piperidin-1-yl) (6-hydroxyspiro[3.3]heptan-2-yl)methanone]",7.30 to 8.30
22,"Cc1cc(N[C@@H]2CCCN(CC3CC4(CC(O)C4)C3)C2)nnc1-c1ccc(C(F)(F)F)cc1O (stereo partly drawn) [Example 62, (R)-6-((3-((6-(2-Hydroxy-4-(trifluoromethyl)phenyl)-5-methylpyridazin-3-yl)amino)piperidin-1-yl)methyl)spiro[3.3]heptan-2-ol]",> 8.30
23,"Cc1cc(N[C@@H]2CCCN(C(=O)C34CC(O)(C3)C4)C2)nnc1-c1ccc(C(F)(F)F)cc1O [Example 63, (R)-(3-((6-(2-Hydroxy-4-(trifluoromethyl)phenyl)-5-methylpyridazin-3-yl)amino)piperidin-1-yl) (3-hydroxybicyclo[1.1.1]pentan-1-yl)methanone]",7.30 to 8.30
24,"Cc1cc(N[C@@H]2CCCN(CC34CC(O)(C3)C4)C2)nnc1-c1ccc(C(F)(F)F)cc1O [Example 64, (R)-3-((3-((6-(2-Hydroxy-4-(trifluoromethyl)phenyl)-5-methylpyridazin-3-yl)amino)piperidin-1-yl)methyl) bicyclo[1.1.1]pentan-1-ol]",> 8.30
25,"Cc1cc(N[C@@H]2CCCN(CCC3CC(O)C3)C2)nnc1-c1ccc(C(F)(F)F)cc1O (stereo partly drawn) [Example 66, (R)-2-(6-((1-(2-(3-Hydroxycyclobutyl)ethyl)piperidin-3-yl)amino)-4-methylpyridazin-3-yl)-5-(trifluoromethyl)phenol]",> 8.30
26,"Cc1c(N[C@@H]2CCCN(C(=O)C34CC(O)(C3)C4)C2)nnc(-c2ccc(C(F)(F)F)cc2O)c1C [Example 67, (R)-(3-((6-(2-hydroxy-4-(trifluoromethyl)phenyl)-4,5-dimethylpyridazin-3-yl)amino)piperidin-1-yl) (3-hydroxybicyclo[1.1.1]pentan-1-yl)methanone]",7.30 to 8.30
27,"Cc1c(N[C@@H]2CCCN(CC34CC(O)(C3)C4)C2)nnc(-c2ccc(C(F)(F)F)cc2O)c1C [Example 68, (R)-3-((3-((6-(2-Hydroxy-4-(trifluoromethyl)phenyl)-4,5-dimethylpyridazin-3-yl)amino)piperidin-1-yl)methyl) bicyclo[1.1.1]pentan-1-ol]",7.30 to 8.30
28,"Cc1cc(N[C@@H]2CCCN(CCOC(=O)N3CCC(O)CC3)C2)nnc1-c1ccc2sccc2c1O [Example 69, (R)-2-(3-((6-(4-Hydroxybenzo[b]thiophen-5-yl)-5-methylpyridazin-3-yl)amino)piperidin-1-yl)ethyl 4-hydroxypiperidine-1-carboxylate]",> 8.30
